PMC8129498, “Synthesis, Antitumor and Antiviral In Vitro Activities of New Benzotriazole-Dicarboxamide Derivatives” (Frontiers in Chemistry, 2021)

Key:
Poliovirus type-1 (Sb-1) = test: microbe, parasite or virus in culture; format: cell-based; details: Enterovirus C, Vero 76, read-out: EC50, plaque reduction Sb-1
[1] = test system: Coxsackievirus B5 (CV-B5); test: Plaque reduction assay, CV-B5 in Vero-76 monolayers; format: cell-based; details: Enterovirus B
[2] = Cytotoxicity in Vero-76 cell-line (MTT); format: cell-based; details: monkey (Cercopithecus aethiops), Vero-76 cells (mock-infected), mock-infected Vero-76 cells
Protocol: Vero-76 cells were seeded in 96-well plates at an initial density of 5 × 10^5 cells/ml, in Dulbecco’s Modified Eagle Medium (D-MEM) with L-glutamine and 25 mg/L kanamycin, supplemented with 10% FBS. Cell cultures were then incubated at 37°C in a humidified and 5% CO2 atmosphere, in the absence or presence of serial dilutions of test compounds. The test medium used for the cytotoxic assay as well as for antiviral assay contained 1% of the appropriate serum. Cell viability was determined after 48–96 h at 37°C by MTT method for Vero-76 ([Pauwels et al., 1988]).
(§1) The extent of cell growth/viability and viral multiplication, at each drug concentration tested, were expressed as percentage of untreated controls. Concentrations resulting in 50% inhibition (CC50 or EC50) were determined by linear regression analysis.

CCRF-CEM = test: Antiproliferative assay (MTT), CCRF-CEM; format: cell-based, human; details: Homo sapiens, CCRF-CEM, 96 h, read-out: CC50 CCRF-CEM
Protocol: (§2) Cell lines were purchased from American Type Culture Collection (ATCC). The absence of mycoplasma contamination was checked periodically by the Hoechst staining method. Exponentially growing leukemia and lymphoma cells were seeded at 1 × 10^5 cells/ml in 96 well plates in RPMI-1640 medium, supplemented with 10% fetal bovine serum, 100 units/ml penicillin G, and 100 μg/ml streptomycin, and incubated at 37°C in a humidified, 5% CO2 atmosphere in the absence or presence of serial dilutions of test compounds. Cell viability was determined after 96 h at 37°C by the 3-(4,5-dimethylthiazol-2-yl)-2,5-diphenyl-tetrazolium bromide (MTT) method. Activity against solid-tumor derived cells was evaluated in exponentially growing cultures seeded at 5 × 10^4 cells/ml and allowed to adhere for 16 h to culture plates before the addition of the drugs. Cell viability was determined by the MTT method 4 days later. Vincristine and doxorubicin were used as reference drugs.
as §1

HeLa = test: Antiproliferative assay (MTT), HeLa; format: cell-based; details: Homo sapiens, 96 h, read-out: CC50 HeLa
Protocol: as §2, §1

[3] = Antiproliferative assay (MTT), CRL 7065 control fibroblasts; format: cell-based, human; details: human
Protocol: as §2, §1

SK-MEL28 = test: Antiproliferative assay (MTT), SK-MEL28; format: cell-based; details: Homo sapiens, SK-MEL-28, 96 h, read-out: CC50 SK-MEL28
Protocol: as §2, §1

WIL-2NS = test: Antiproliferative assay (MTT), WIL-2NS; format: cell-based; details: Homo sapiens, WIL2-NS, 96 h, read-out: CC50 WIL-2NS
Protocol: as §2, §1

CCRF-SB = test: Antiproliferative assay (MTT), CCRF-SB; format: cell-based; details: Homo sapiens, 96 h, read-out: CC50 CCRF-SB
Protocol: as §2, §1

SK-MES1 = test: Antiproliferative assay (MTT), SK-MES1; format: cell-based; details: Homo sapiens, SK-MES-1, 96 h, read-out: CC50 SK-MES1
Protocol: as §2, §1

DU145 = test: Antiproliferative assay (MTT), DU145; format: cell-based; details: Homo sapiens, DU-145, 96 h, read-out: CC50 DU145
Protocol: as §2, §1

In the case of `O=C(Nc1ccc(-n2nc3cc(Cl)c(Cl)cc3n2)cc1)c1cccc(C(=O)Nc2ccc(-n3nc4cc(Cl)c(Cl)cc4n3)cc2)n1`, the melting point is reported as over 300 °C.

Work on `O=C(O)c1cccc(C(=O)Nc2ccc(-n3nnc4cc(Cl)c(Cl)cc43)cc2)n1` yielded a melting point of 240 °C.

`O=C(O)CCC(=O)Nc1ccc(-n2nnc3cc(Cl)c(Cl)cc32)cc1` [Compound 4a, 4-((4-(5,6-Dichloro-1H-Benzo[d][1,2,3]Triazol-1-yl)phenyl)amino)-4-oxobutanoic Acid] showed an EC50 (Poliovirus type-1 (Sb-1)) of over 90 µM, an EC50 [1] of 13 µM and a CC50 [2] of 90 µM. For the same molecule, the melting point was 163 to 164 °C.

`O=C(O)CCCCC(=O)Nc1ccc(-n2nnc3cc(Cl)c(Cl)cc32)cc1` [Compound 4c, 6-((4-(5,6-Dichloro-1H-Benzo[d][1,2,3]Triazol-1-yl)phenyl)amino)-6-oxohexanoic Acid] gave an EC50 (Poliovirus type-1 (Sb-1)) of over 37 µM, an EC50 [1] of 9 µM and a CC50 [2] of 37 µM. The melting point was 148 to 150 °C.

With `O=C(CCC(=O)Nc1ccc(-n2nnc3cc(Cl)c(Cl)cc32)cc1)Nc1ccc(-n2nnc3cc(Cl)c(Cl)cc32)cc1` the melting point was 264 to 265 °C.

Work on `O=C(O)CCC(=O)Nc1ccc(Cn2nnc3ccccc32)cc1` yielded a melting point of 193 to 195 °C.

For `O=C(O)c1ccc(C(=O)Nc2ccc(Cn3nnc4ccccc43)cc2)s1`, the melting point was over 300 °C.

`O=C(Nc1ccc(-n2nnc3cc(Cl)c(Cl)cc32)cc1)c1ccc(C(=O)Nc2ccc(-n3nnc4cc(Cl)c(Cl)cc43)cc2)cc1` gave a melting point of 197 to 199 °C.

In the case of `O=C(O)c1cccc(C(=O)Nc2ccc(Cn3nnc4cc(Cl)c(Cl)cc43)cc2)n1`, the melting point is reported as 175 to 177 °C.

In the case of `Cc1cc2nnn(Cc3ccc(NC(=O)CCCC(=O)O)cc3)c2cc1C`, the melting point is reported as 270 to 272 °C.

`Cc1cc2nnn(Cc3ccc(NC(=O)c4ccc(C(=O)Nc5ccc(Cn6nnc7cc(C)c(C)cc76)cc5)s4)cc3)c2cc1C` gave a melting point of 225 to 227 °C.

With `C#C[C@@]1(O)[C@H](O)[C@@H](CO)O[C@H]1n1ccc(N)nc1=O` [Compound 2ec, 2′-C-ethynyl-cytidine, reference compound] the EC50 (Poliovirus type-1 (Sb-1)) was 23 µM and the CC50 [2] was over 100 µM.

`O=C(O)CCCC(=O)Nc1ccc(-n2nnc3cc(Cl)c(Cl)cc32)cc1` [Compound 4b, 5-((4-(5,6-Dichloro-1H-Benzo[d][1,2,3]Triazol-1-yl)phenyl)amino)-5-oxopentanoic Acid] gave an EC50 (Poliovirus type-1 (Sb-1)) of 44 µM, an EC50 [1] of 45 µM and a CC50 [2] of over 100 µM. For the same molecule, the melting point was 106 to 108 °C.

Molecule `Cc1cc2nnn(Cc3ccc(NC(=O)c4ccc(C(=O)O)s4)cc3)c2cc1C` has a melting point of over 300 °C.

`Cc1cc2nnn(Cc3ccc(NC(=O)c4cccc(C(=O)Nc5ccc(Cn6nnc7cc(C)c(C)cc76)cc5)n4)cc3)c2cc1C` showed a melting point of 186 to 188 °C.

With `O=C(O)CCCC(=O)Nc1ccc(Cn2nnc3ccccc32)cc1` the melting point was 152 to 154 °C.

`O=C(/C=C/C(=O)Nc1ccc(Cn2nnc3cc(Cl)c(Cl)cc32)cc1)Nc1ccc(Cn2nnc3cc(Cl)c(Cl)cc32)cc1` showed a melting point of over 300 °C.

Molecule `O=C(O)CCCCC(=O)Nc1ccc(Cn2nnc3ccccc32)cc1` has a melting point of 134 to 136 °C.

`O=C(Nc1ccc(Cn2nnc3ccccc32)cc1)c1cccc(C(=O)Nc2ccc(Cn3nnc4ccccc43)cc2)n1` showed a melting point of 111 to 112 °C.

In the case of `O=C(CCC(=O)Nc1ccc(Cn2nnc3ccccc32)cc1)Nc1ccc(Cn2nnc3ccccc32)cc1`, the melting point is reported as 255 to 257 °C.

In the case of `Cc1cc2nnn(Cc3ccc(NC(=O)CCCCC(=O)O)cc3)c2cc1C`, the melting point is reported as 203 to 204 °C.

For `O=C(CCCCC(=O)Nc1ccc(Cn2nnc3ccccc32)cc1)Nc1ccc(Cn2nnc3ccccc32)cc1`, the melting point was 231 to 232 °C.

In the case of `Cc1cc2nnn(Cc3ccc(NC(=O)/C=C/C(=O)Nc4ccc(Cn5nnc6cc(C)c(C)cc65)cc4)cc3)c2cc1C`, the melting point is reported as 117 to 119 °C.

Molecule `O=C(O)c1cccc(C(=O)Nc2ccc(-n3nc4cc(Cl)c(Cl)cc4n3)cc2)n1` has a melting point of 240 °C.

Work on `Cc1cc(CCCOc2c(C)cc(-c3noc(C(F)(F)F)n3)cc2C)on1` [P, Pleconaril, reference compound] yielded an EC50 [1] of 0.005 µM and a CC50 [2] of over 100 µM.

Work on `Cc1cc2nnn(Cc3ccc(NC(=O)CCCC(=O)Nc4ccc(Cn5nnc6cc(C)c(C)cc65)cc4)cc3)c2cc1C` yielded a melting point of 253 to 255 °C.

For `O=C(Nc1ccc(Cn2nnc3ccccc32)cc1)c1ccc(C(=O)Nc2ccc(Cn3nnc4ccccc43)cc2)s1`, the melting point was over 300 °C.

`O=C(CCCCC(=O)Nc1ccc(-n2nnc3cc(Cl)c(Cl)cc32)cc1)Nc1ccc(-n2nnc3cc(Cl)c(Cl)cc32)cc1` showed a melting point of 293 to 294 °C.

`Cc1cc2nnn(Cc3ccc(NC(=O)CCCCC(=O)Nc4ccc(Cn5nnc6cc(C)c(C)cc65)cc4)cc3)c2cc1C` showed a melting point of 283 to 285 °C.

In the case of `O=C(Nc1ccc(-n2nnc3cc(Cl)c(Cl)cc32)cc1)c1cccc(C(=O)Nc2ccc(-n3nnc4cc(Cl)c(Cl)cc43)cc2)n1`, the melting point is reported as over 300 °C.

Work on `O=C(Nc1ccc(Cn2nnc3ccccc32)cc1)c1ccc(C(=O)Nc2ccc(Cn3nnc4ccccc43)cc2)cc1` yielded a melting point of over 300 °C.

Molecule `O=C(Nc1ccc(Cn2nnc3cc(Cl)c(Cl)cc32)cc1)c1ccc(C(=O)Nc2ccc(Cn3nnc4cc(Cl)c(Cl)cc43)cc2)s1` has a melting point of over 300 °C.

`O=C(O)CCCC(=O)Nc1ccc(Cn2nnc3cc(Cl)c(Cl)cc32)cc1` showed a melting point of 173 to 175 °C.

For `Cc1cc2nnn(Cc3ccc(NC(=O)/C=C/C(=O)O)cc3)c2cc1C`, the melting point was 256 to 258 °C.

In the case of `O=C(O)c1cccc(C(=O)Nc2ccc(Cn3nnc4ccccc43)cc2)n1`, the melting point is reported as 230 to 232 °C.

Molecule `O=C(O)c1ccc(C(=O)Nc2ccc(Cn3nnc4ccccc43)cc2)cc1` has a melting point of over 300 °C.

`O=C(O)CCCCC(=O)Nc1ccc(Cn2nnc3cc(Cl)c(Cl)cc32)cc1` showed a melting point of 228 to 230 °C.

Work on `O=C(CCCCC(=O)Nc1ccc(Cn2nnc3cc(Cl)c(Cl)cc32)cc1)Nc1ccc(Cn2nnc3cc(Cl)c(Cl)cc32)cc1` yielded a melting point of over 300 °C.

Work on `COc1cccc2c1C(=O)c1c(O)c3c(c(O)c1C2=O)C[C@@](O)(C(=O)CO)C[C@@H]3O[C@H]1C[C@H](N)[C@H](O)[C@H](C)O1` [Doxorubicin, reference compound] yielded a CC50 (CCRF-CEM) of 0.02 ± 0.01 µM, a CC50 (HeLa) of 1.8 ± 0.2 µM and a CC50 at 96 h [3] of 2 ± 0.2 µM. The CC50 (SK-MEL28) was 1.1 ± 0.2 µM, the CC50 (WIL-2NS) was 0.06 ± 0.01 µM and the CC50 (CCRF-SB) was 0.03 ± 0.02 µM. For the same molecule, the CC50 (SK-MES1) was 0.65 ± 0.05 µM and the CC50 (DU145) was 0.3 ± 0.1 µM.

`Cc1cc2nnn(Cc3ccc(NC(=O)c4ccc(C(=O)O)cc4)cc3)c2cc1C` showed a melting point of over 300 °C.

In the case of `Cc1cc2nnn(Cc3ccc(NC(=O)CCC(=O)Nc4ccc(Cn5nnc6cc(C)c(C)cc65)cc4)cc3)c2cc1C`, the melting point is reported as 270 to 272 °C.

In the case of `O=C(CCC(=O)Nc1ccc(Cn2nnc3cc(Cl)c(Cl)cc32)cc1)Nc1ccc(Cn2nnc3cc(Cl)c(Cl)cc32)cc1` [Compound 9a, N ^1,N ^4-Bis(4-((5,6-Dichloro-1H-Benzo[d][1,2,3]Triazol-1-yl)methyl)phenyl)Succinamide], the EC50 (Poliovirus type-1 (Sb-1)) is reported as 43 µM, the EC50 [1] is reported as 23 µM and the CC50 [2] is reported as over 100 µM. The melting point was over 300 °C.

In the case of `Cc1cc2nnn(Cc3ccc(NC(=O)c4cccc(C(=O)O)n4)cc3)c2cc1C`, the melting point is reported as 214 to 216 °C.

In the case of `O=C(Nc1ccc(Cn2nnc3cc(Cl)c(Cl)cc32)cc1)c1cccc(C(=O)Nc2ccc(Cn3nnc4cc(Cl)c(Cl)cc43)cc2)n1`, the melting point is reported as over 300 °C.

Work on `O=C(Nc1ccc(-n2nc3cc(Cl)c(Cl)cc3n2)cc1)c1ccc(C(=O)Nc2ccc(-n3nc4cc(Cl)c(Cl)cc4n3)cc2)cc1` yielded a melting point of over 300 °C.

Work on `O=C(CCCC(=O)Nc1ccc(Cn2nnc3ccccc32)cc1)Nc1ccc(Cn2nnc3ccccc32)cc1` yielded a melting point of 237 to 238 °C.

In the case of `O=C(O)CCC(=O)Nc1ccc(Cn2nnc3cc(Cl)c(Cl)cc32)cc1`, the melting point is reported as 214 to 216 °C.

`Cc1cc2nnn(Cc3ccc(NC(=O)CCC(=O)O)cc3)c2cc1C` showed a melting point of 218 to 220 °C.

`O=C(Nc1ccc(-n2nc3cc(Cl)c(Cl)cc3n2)cc1)c1ccc(C(=O)Nc2ccc(-n3nc4cc(Cl)c(Cl)cc4n3)cc2)s1` gave a melting point of over 300 °C.
